Legend:
A375 cells = test: Payload cellular killing in A375 cancer line; assay type: cell-based, human; conditions: Cell Titer-Glo
Method: A375 (ATCC, CRL-1619). […] The base medium for A375 is DMEM, high glucose, GlutaMAX™ Supplement (Gibco, 10566024). […] The cell line was grown in a humidified 5% CO2 atmosphere at 37 °C, and was regularly tested for the presence of mycoplasma with MycoAlert™ PLUS Mycoplasma Detection Kit (Lonza, LT07-710).
(§1) Payload cellular killing was assessed in A375 and Calu-6 cancer lines. Cells were seeded (A375 (1E3/well) or Calu-6 (2E3/well)) into a 96-well plate (Greiner: 655090), at 100 μl/well and incubated at 37 °C, 5% CO2, overnight. Fresh growth medium was added containing varying concentrations of compounds, 50 μl/well, and incubated at 37 °C, 5% CO2, for 6 days. The cell viability was detected by Cell Titer-Glo (Promega, G7573). 70 μL of CellTiter-Glo® Reagent was added to each well. The plates were allowed to incubate at room temperature for 10 minutes to stabilize the luminescent signal. The plates were analyzed with a microplate reader.

Calu-6 cells = test: Payload cellular killing in Calu-6 cancer line; assay type: cell-based; conditions: 6 days, Cell Titer-Glo
Method: Calu-6 (ATCC, HTB-56). […] The base medium for Calu-6 is Eagle's Minimum Essential Medium (ATCC, 30-2003). […] The cell line was grown in a humidified 5% CO2 atmosphere at 37 °C, and was regularly tested for the presence of mycoplasma with MycoAlert™ PLUS Mycoplasma Detection Kit (Lonza, LT07-710).
as §1

Structure (SMILES)	Emax (%) (A375 cells; 6 days)	Emax (%) (Calu-6 cells)	EC50 (Calu-6 cells; Homo sapiens) [nM]	EC50 (A375 cells; 6 days) [nM]	EC50 (Calu-6 cells) [nM]	EC50 (A375 cells; Homo sapiens, A-375, 6 days) [nM]	Emax (A375 cells; Homo sapiens, A-375, 6 days) [%]	Emax (Calu-6 cells; Homo sapiens) [%]
CC[C@@]1(O)C(=O)OCc2c1cc1n(c2=O)Cc2c-1nc1cc(F)c(C)c3c1c2C(CCCO)CC3 (stereo partly drawn) [P3, (9S)-9-ethyl-5-fluoro-9-hydroxy-1-(3-hydroxypropyl)-4-methyl-1,2,3,9,12,15-hexahydro-10H,13H-benzo[de]pyrano[3′,4′:6,7]indolizino[1,2-b]quinoline-10,13-dione]	100.0	99.2	0.2	–	–	–	–	–
CC[C@@]1(O)C(=O)OCc2c1cc1n(c2=O)Cc2c-1nc1cc(F)c(C)c3c1c2C(CCO)CC3 (stereo partly drawn) [P5, (9S)-9-ethyl-5-fluoro-9-hydroxy-1-(2-hydroxyethyl)-4-methyl-1,2,3,9,12,15-hexahydro-10H,13H-benzo[de]pyrano[3′,4′:6,7]indolizino[1,2-b]quinoline-10,13-dione]	100.0	98.1	–	–	–	–	–	–
CC[C@@]1(O)C(=O)OCc2c1cc1n(c2=O)Cc2c-1nc1cc3c(c4c1c2[C@@H](NC(=O)C(C)(F)CO)CC4)OCO3 (stereo partly drawn) [P9, N-((1S,10S)-10-ethyl-10-hydroxy-11,14-dioxo-2,3,10,11,14,16-hexahydro-1H,13H-benzo[de][1,3]dioxolo[4,5-g]pyrano[3′,4′:67]indolizino[1,2-b]quinolin-1-yl)-2-fluoro-3-hydroxy-2-methylpropanamide]	100.0	98.3	–	2.1	0.9	–	–	–
CC[C@@]1(O)C(=O)OCc2c1cc1n(c2=O)Cc2c-1nc1cc3c(c4c1c2[C@@H](NC(=O)OCCO)CC4)OCO3 [P10, 2-hydroxyethyl ((1S,10S)-10-ethyl-10-hydroxy-11,14-dioxo-2,3,10,11,14,16-hexahydro-1H,13H-benzo[de][1,3]dioxolo[4,5-g]pyrano[3′,4′:6,7]indolizino[1,2-b]quinolin-1-yl)carbamate]	–	–	0.7	–	–	2.2	100	97.4
CC[C@@]1(O)C(=O)OCc2c1cc1n(c2=O)Cc2c-1nc1cc(F)c(C)c3c1c2C(CN(C)CCO)CC3 (stereo partly drawn) [P11, (9S)-9-ethyl-5-fluoro-9-hydroxy-1-(((2-hydroxyethyl)(methyl)amino)methyl)-4-methyl-1,2,3,9,12,15-hexahydro-10H,13H-benzo[de]pyrano[3′,4′:6,7]indolizino[1,2-b]quinoline-10,13-dione]	–	–	–	–	–	0.8	–	98
